Laboratory results from patent US11557737B2, “Compound, coating composition comprising same, organic light-emitting element using same, and manufacturing method therefor” (LG Chem, Ltd., priority 2018, dated 2023).

Assay: Solubility measurement (compound dissolved in solvent, left 1 day, precipitate checked by Tyndall effect)
Type: physicochemical
Settings: dissolved in a solvent, left to stand for 1 day, laser / Tyndall effect
Experimental: In the present specification, the “solubility” means a property in which a solute is dissolved in a specific solvent, and may be denoted as a g value of the solute that may be dissolved in 100 g of the solvent at a predetermined temperature.
The method of measuring the solubility is as follows. First, after a compound was dissolved in a solvent, the resulting solution was left to stand for 1 day. Thereafter, by passing a laser through the solution, it was observed whether a precipitate was formed through the Tyndall effect, and the solubility was measured.

| SMILES | Solubility [wt %] |
| --- | --- |
| C[Si](C)(C)c1ccc(N(c2ccccc2)c2ccc3ccc4c(N(c5ccccc5)c5ccc([Si](C)(C)C)cc5)ccc5ccc2c3c54)cc1 [Compound C] | 0.1 |
| C[Si](C)(C)c1ccc(-c2ccc(N(c3ccc4ccc5c(N(c6ccc(-c7ccc([Si](C)(C)C)cc7)cc6)c6cccc7c6oc6ccccc67)ccc6ccc3c4c65)c3cccc4c3oc3ccccc34)cc2)cc1 [Compound D] | 0.05 |
| c1ccc([Si](c2ccccc2)(c2ccccc2)c2ccc(-c3ccc(N(c4ccc(-c5cccc6c5oc5ccccc56)cc4)c4cc5ccc6cccc7ccc(c4)c5c67)cc3)cc2)cc1 [Compound E] | 2 |
| c1ccc([Si](c2ccccc2)(c2ccccc2)c2ccc(-c3ccc(N(c4ccc(-c5ccc6c(c5)oc5ccccc56)cc4)c4cc5ccc6cccc7ccc(c4)c5c67)cc3)cc2)cc1 [Compound F] | 2 |
